According to patent US6630123B1, “Method to enhance tissue accumulation of radiolabeled compounds” (Board of Supervisors of Louisiana State University and …, priority 1997, dated 2003):
Where no end group is shown, it is not given here.

Columns and labels:
[1] = test system: neuroendocrine cancers expressing the somatostatin receptor; assay: Pilot clinical trial of monthly 180 mCi doses; type: in vivo, human; settings: ten patients
Method: For six months, pilot clinical trials were conducted in ten human patients with progressive metastatic indolent and symptomatic neuroendocrine cancers expressing the somatostatin receptor. […] The first monthly dose was a bolus injection of 180 mCi. The second monthly dose was infusion of 180 mCi over 72 hr. The third monthly dose was infusion of 180 mCi over 24 hr. Thereafter, all monthly doses were infusion of 180 mCi over 24 hr. Clinical benefits (as evidenced by reduced pain, weight gain, reduced malaise, etc.) occurred in 6 of the 10 neuroendocrine (carcinoid/islet cell) patients. Partial radiographic responses (greater than 50% reduction in the product of perpendicular tumor diameters) occurred in 2 patients, and significant tumor necrosis developed in 7 of the 10 neuroendocrine patients. Treatment-related toxicity included 2 Grade III platelet, 1 Grade II WBC, 1 Grade I WBC and 2 Grade I Hb on the NCI (National Cancer Institute) grading scale.

[2] = test system: tumor in the left side of the neck (metastatic small cell carcinoma); settings: in vivo
Method: During and after each administration of the last eight doses, a tumor in the left side of the neck was monitored for radioligand uptake with an ion chamber survey meter, a Victoreen 450P ion chamber, which measures external gamma dose rates. Administration of the initial seven doses were by bolus inject ion. The last three doses were delivered by infusion with various activities of radioligand.
The external gamma dose rates from radioligand accumulation in the neck tumor area were measured immediately and 24 hr after injection. After the treatment of the fifth month, the patient was monitored for radioligand uptake for an extended period—at 2, 4, and 8 days after the injection.
Four months after the final bolus dose, the first dose by infusion (“Infusion 1”) was administered. A dose equivalent to the previous bolus dose (175.9 mCi) was given, but the radioligand was administered by infusion over 72 hr at a constant rate of 2.5 mCi/hr.
One month later, in “Infusion 2,” the total dose was increased to 389.2 mCi. By infusion, 189.8 mCi of the radioligand was given over the first 24 hr, 108.6 mCi over the second 24 hr, and 90.8 mCi over the third 24 hr. For each 24 hr period, the infusion rate was kept constant.
One month later, a third dose was administered by infusion (“Infusion 3”). A dose of 301 mCi was infused the first 24 hr period. […]

[3] = cited from earlier work
[4] = test system: human placental-derived vascular endothelial cells; assay: Binding and internalization in angiogenic vascular endothelial cells; type: cell-based; settings: 500,000 cells, 500,000 cpm, acid wash, FIG. 17
Source text: Human placental-derived vascular endothelial cells were used to assay for cell binding of the somatostatin analog, ^125I-JIC-2D. The radioligand, a somatostatin analog, ^125I-JIC-2D, was made by solid phase peptide synthesis as described in U.S. Pat. No. 5,597,894. This peptide has an amino acid sequence of the following: D-Lys-D-Tyr-D-Lys-D-Tyr-D-Lys-C[Cys-Phe-D-Trp-Lys-Thr-Cys]-Thr-NH2. The cells were obtained by growing discs of human placental veins in fibrinclots for 14 days. […] These discs and their angiogenic sprouts are harvested mechanically and dissociated by vortexing. The vein discs are then discarded and the endothelial cells pooled. Cells were harvested, counted with a hemocytometer, and resuspended in binding buffer (Minimum Essential Medium (MEM), 10 mM Hepes, 0.01% BSA). A standard assay used 500,000 cells in 1 ml of binding buffer. […] At the termination of the experiment, the incubation medium was removed, the cells were rinsed twice with Hanks balanced salt solution (HBSS), and the radioactivity in the cells determined using a gamma counter. This level of radioactivity represents total binding, which includes both membrane-bound and internalized fractions. Specific binding was determined by calculating the difference in the levels of measured radioactivity without the unlabeled competitor minus the radioactivity with the unlabeled competitor. […]

[5] = test system: human placental vein discs (angiogenic vascular tissue); assay: Human Placental Vein Angiogenesis Model; type: cell-based; settings: 50 μCi/mL (or equivalent amounts)
Source text: Watson et al., “Up-Regulation of Somatostatin Receptor Subtype 2. (SST-2) mRNA Occurs During the Transformation of Human Endothelium to the Angiogenic Phenotype,” Paper Presented at the 12th International Symposium on Regulatory Peptides, Copenhagen, Denmark, September 1996; J. C. Watson et al., “SST-2 Gene Expression Appears During Human Angiogenesis,” Regulatory Peptides, vol. 64, p. 206 (Abstract) (1996); and J. C. Watson et al., “Breast Cancer Increases Initiation of Angiogenesis Without Accelerating Neovessel Growth Rate,” Surgery, vol. 122, pp. 508-14 (1997). Human placental veins were cut into discs of 2 mm diameter and were incorporated into a 0.3% fibrinogen gel. This gel was then overlaid with tissue culture media containing 10-20% fetal calf serum (FCS). Under normal conditions, endothelial cords will begin to sprout from the transected cut edge of the vein discs within six days.
These vein discs were placed into wells of three separate culture plates. One culture plate, the control sample, was allowed to grow without treatment. […] The discs were then incubated for fourteen days. After 14 days the culture plates were examined for the number of wells in which angiogenic growth was initiated. […] The molar concentration of the radiolabeled somatostatin analog added to the culture plates was in the femtomolar range (10^−15). This concentration is 1000× or more below the concentration of unlabeled somatostatin analog that is known to inhibit angiogenesis; a concentration of 10^−5 M to 10^−8 M. Thus any effect was due to the radiolabel and not just the presence of the somatostatin analog. […] Only the radiolabel connected to the somatostatin analog would be incorporated into the DNA. Thus the greater decrease is due to this incorporation and the Auger emission on DNA.
Using a digital image analyzer, the mean area of the sprouting tissue surrounding the discs was measured.
To measure the growth rate of angiogenic vascular tissue, every two days during the 14-day incubation period, the length of sprouts were measured. […]

[6] = test system: T47D breast cancer cell line; assay: Specific binding of radiolabeled estradiol with time, T47D; type: cell-based, human; settings: T-47D
Method: (§1) To follow the time of uptake of a steroid hormone, three cell lines were incubated with a radiolabeled estrogen using procedures similar to those of Example 2. Three breast cancer cell lines were used; MCF-7 (ATCC No. HTB-22), T47D (ATCC No. HTB-133), and ZR-75-1 (ATCC No. CRL-1500). The estrogen used was 17-β-estradiol, the major secreted estrogen in humans. The radiolabeled compound was ^125I-17-β-estradiol, which was either purchased from New England Nuclear or synthesized by the following procedure: A 10 ml Sephadex G-10 column was equilibrated for 1 hr with 0.1 M PBS. A solution was prepared of 12.5 μg estradiol conjugate (BL-43), 25 μl methanol, 50 μl 0.05 M phosphate buffer pH 7.5, 3 mCi Na^125I, and 25 μl of a mixture of 10 mg chloramine-T and 10 ml 0.05 M phosphate buffer. After mixing for 40 sec, 25 μl of sodium metabisulfite 20 mg/10 ml 0.05 M Phosphate buffer was added and mixed an additional 40 sec. The mixture was then added to the Sephadex column and eluted first with 0.1 M PBS. Finally, the radiolabeled estradiol was eluted with 0.1 M PBS and 1,4 Dioxane (70:30).
(§2) The standard binding procedure described in Example 2 was used except that radiolabeled estradiol was used as the ligand with 1000× excess non-radioactive estradiol as the competitor. Unlike peptides that initially must bind on the plasma membrane, steroids bind only to intracellular receptors. Thus no radioactivity on the membrane should be found.

[7] = test system: ZR-75-1 breast cancer cell line; assay: Specific binding of radiolabeled estradiol with time, ZR-75-1; type: cell-based, human
Method: as §1, §2

[8] = test system: MCF-7 breast cancer cell line; assay: Specific binding of radiolabeled estradiol with time, MCF-7; type: cell-based, human
Method: as §1, §2

IMR-32 cells = assay: Nuclear translocation, Percoll density gradient fractionation; type: cell-based, human
Method: The cells were washed twice in media at 4° C. and resuspended in cold isotonic sucrose. The labeled cells were passed through a ballbearing homogenizer three times to disrupt cell membranes while leaving approximately 95% of the cell nuclei intact, according to the method of Balch et al., Arch. Biochem. Biophys., vol. 240, p. […] The cell homogenate was mixed with Percoll to give a final concentration of 0.292% Percoll and spun at 20,400 rpm in a Beckman 40.2 rotor for 45 min to generate a density gradient. Density marker beads (Pharmacia) were used to indicate density levels in the tube. The contents of the tube were fractionated in an ISCO Density Gradient Fractionator. The resulting tubes were assayed for content of radiolabeled somatostatin or analogs, DNA to indicate nuclei, protein, the plasma membrane marker 5′-nucleotidase, and the lysosome marker N-acetylglucosaminidase. The usual assumption was made that the radioactivity measured in fractions rich in a certain cell component was in fact associated with that component; e.g., the radioactivity measured in a fraction rich in plasma membrane was due to association of the radiolabeled compound with the plasma membrane.

## C[C@@H](O)[C@@H]1NC(=O)[C@H](CCCCN)NC(=O)[C@@H](Cc2c[nH]c3ccccc23)NC(=O)[C@H](Cc2ccccc2)NC(=O)[C@@H](NC(=O)[C@@H](Cc2ccccc2)NC(=O)CN2CCN3CCN(CC(=O)O)CC(=O)[O][111In]([O]C(=O)C3)[O]C(=O)C2)CSSC[C@@H](C(=O)N[C@H](CO)[C@@H](C)O)NC1=O [^111In-pentetreotide, ^111In-DTPA-D-Phe^1-octreotide]
[1]
  Treatment-related toxicity: Grade I Hb (NCI scale), number of cases: 2
  Treatment-related toxicity: Grade I WBC (NCI scale), number of cases: 1
  Treatment-related toxicity: Grade II WBC (NCI scale), number of cases: 1
  Treatment-related toxicity: Grade III platelet (NCI scale), number of cases: 2
[2]; female, human
  half-life of exponential decay of tumor radioactivity (approached physical half-life of the radioligand): ~67.3 h
[2]
  persistence of tumor foci on gamma camera scintigraphy: still identifiable by gamma scintigraphy thirteen days after completion of the last infusion dose

## CC(C)[C@@H]1NC(=O)[C@H](CCCCN)NC(=O)[C@@H](Cc2c[nH]c3ccccc23)NC(=O)[C@H](Cc2ccc(O)cc2)NC(=O)[C@@H](NC(=O)[C@H](N)Cc2ccc3ccccc3c2)CSSC[C@@H](C(=O)N[C@H](C(N)=O)[C@@H](C)O)NC1=O [lanreotide]
[3]
  biologic half-life: 60-90 min

## D-Lys-D-Tyr-D-Lys-D-Tyr-D-Lys-C[Cys-Phe-D-Trp-Lys-Thr-Cys]-Thr-NH2 [^125I-JIC-2D]
[4]
  binding and internalization: the vast majority of the radioligand was internalized into the cell

## ^111In-Cl
[5]; 14-day incubation, FIG. 20
  growth rate (mm/day) of angiogenic vascular tissue: substantially below that of the control
[5]; 14 days, FIG. 18
  % initiation of angiogenic growth: substantially less than the control plate
[5]; 14 days, FIG. 19
  vessel area (mm^2) of sprouting tissue: substantially less

## ^125I-17-β-estradiol
[6]; 1 Hr
  Specific Binding: 401 CPM
[6]; 4 Hr
  Specific Binding: 506 CPM
[6]; 24 Hr
  Specific Binding: 532 CPM
[6]; 48 Hr
  Specific Binding: 455 CPM
[7]; ZR-75-1, 1 Hr
  Specific Binding: 4102 CPM
[7]; ZR-75-1, 4 Hr
  Specific Binding: 4865 CPM
[7]; ZR-75-1, 24 Hr
  Specific Binding: 3370 CPM
[7]; ZR-75-1, 48 Hr
  Specific Binding: 3057 CPM
[8]; MCF-7, 1 Hr
  Specific Binding: 1605 CPM
[8]; MCF-7, 4 Hr
  Specific Binding: 2253 CPM
[8]; MCF-7, 24 Hr
  Specific Binding: 4109 CPM
[8]; MCF-7, 48 Hr
  Specific Binding: 731 CPM

## ^125I-somatostatin: radiolabeled native somatostatin, very short-lived peptide (AGCKNFFWKTFTSC; ends and bridges not checked; also: 125I label, site not given here; UniProt P61278 103-116, looked up)
IMR-32 cells; 1 hr incubation
  cellular distribution of radioactivity (membrane vs nuclear fractions): both membrane binding and small amounts of nuclear binding
IMR-32 cells; 4 hr incubation
  cellular distribution of radioactivity (membrane vs nuclear fractions): plasma membrane binding appeared to have peaked and the nuclear fraction was dissipating
IMR-32 cells; 24 hr incubation
  cellular distribution of radioactivity (membrane vs nuclear fractions): essentially no plasma membrane or nuclear binding was seen
